Experimental data from paper PMC10053857, “Analysis of NSAIDs in Rat Plasma Using 3D-Printed Sorbents by LC-MS/MS: An Approach to Pre-Clinical Pharmacokinetic Studies” (Pharmaceutics, 2023).

How the values were obtained:
[1] = Stability of analytes in rat plasma (bench-top, autosampler/post-operative, freeze-thaw); format: in vitro ADME; conditions: for Mean Estimated Concentration ± SD, autosampler stability: 15 °C for 24 h; for Mean Estimated Concentration ± SD, bench-top stability: 8 h at ambient temperature; for Mean Estimated Concentration ± SD, three freeze-thaw cycles: each cycle at −20 °C; for mean percentage changes in plasma during bench-top stability, post-operative, and three freeze-thaw cycles: low and high QC
Procedure: To assess the specificity and selectivity of the validated LC-MS/MS method and to determine the exclusion of endogenous interferences at the retention time of the compound and I.S., a total of six plasma samples and two plasma samples containing 50 ng/mL I.S. solution were subjected to extraction using the 3D sorbent. A calibration curve for rat plasma was constructed for standards over a range of 1–800 ng/mL for acetaminophen and 1–500 ng/mL for indomethacin. The peak area ratio of the drug and I.S. was plotted with a weighing factor of 1/X to assess acetaminophen linearity and linear regression for indomethacin. The minimum detectable concentration of analytes, also known as the lower limit of quantification (LLOQ), was established as the concentration at which the coefficient of variation (CV) is less than 20%, and the accuracy is within the range of 80–120%. Four different concentrations of quality control samples were used for six replicates to determine the intra- and inter-day precision and accuracy. As per the FDA guidelines, CV was limited to <20% for the LLOQ and ≤15% for the LQC, MQC, and HQC. Accuracy was calculated as the percentage difference between the observed and nominal concentrations of the QC samples. A comparison of the peak area ratios of analytes to I.S. of extracted samples (n = 6) and drug solutions of the same concentration was performed to evaluate the extraction recovery of molecules from rat plasma. LQC, MQC, and HQC concentrations were investigated for extraction recovery. The matrix effect of the LQC, MQC, and HQC samples was determined by deproteinizing the blank plasma samples and adding analytes and I.S. to the deproteinized sample. Furthermore, the same analyte concentrations were analyzed in aqueous solutions. The matrix factor was calculated using the following equation: (peak area of post-extracted standard analytes/peak area of the analyte in aqueous solution) × 100. To test the dilution integrity, the range of the standard compound concentrations was increased beyond the calibration range. Plasma samples with 1200 ng/mL of acetaminophen and indomethacin were individually prepared and then diluted two-fold and four-fold using blank plasma. The dilution integrity of concentrations was evaluated with %CV <15%. A series of injections was performed to assess the carry-over effect of acetaminophen and indomethacin. The injections included a blank solvent sample, a higher concentration standard sample, a blank plasma sample extracted with the 3D sorbent, and a higher concentration sample extracted with 3D sorbent from plasma. The thresholds for carry-over effects were 20% of the mean extracted LLOQ signal and 5% of the I.S. response. The stability of acetaminophen and indomethacin in rat plasma was evaluated at six low- and high-quality control sample replicates. Benchtop and post-operative stability studies were conducted at 8 h at ambient temperature and 15 °C for 24 h, respectively. Quality control samples were stored at −20 °C and thawed at room temperature every 24 h for freeze-thaw stability, and after three freeze-thaw cycles, samples were analyzed.

[2] = in vivo; set-up: species or system male Sprague-Dawley rats; conditions: male, Sprague-Dawley, rat, po
Procedure: A 3D sorbent was used as the extraction device to evaluate the in vivo pharmacokinetics of acetaminophen and indomethacin. The Institutional Animal Ethics Committee of the National Institute of Pharmaceutical Education and Research, Guwahati (NIPER/CAF/IAEC/2022/60) approved all the animal experiments. For the pharmacokinetic study, the animal house was kept at a temperature of 25 ± 1 °C with a relative humidity of 50 ± 15%. The rats were maintained on a 12-h dark/light cycle and had free access to food and water. Prior to the study, the animals fasted for 12 h. To minimize variations in drug concentration in the plasma, 18 male Sprague-Dawley rats of similar weight and age were used. Rats were administered 50 mg/kg acetaminophen and 10 mg/kg indomethacin in saline through oral gavage to a different group. Blood samples were collected and thoroughly vortexed at 0.25, 0.50, 1, 2, 4, 6, and 8 h before being centrifuged at 5000 rpm for 20 min at 4 °C. The resulting plasma samples were separated and subjected to analysis using LC-MS/MS. The 3D extraction prototype was used to extract analytes from the plasma by introducing 90 µL of plasma spiked with 10 µL of an internal standard (I.S., 50 ng/mL), making up to 1 mL with deionized water, and adding the 3D extraction device for the adsorption process. After 15 min of adsorption in the vortexes, the remaining residue was collected for further analysis, the prototype was transferred into a fresh microcentrifuge tube, and desorption solvents (water and acetonitrile) were added in a 1:1 (v/v) ratio and vortexed for 15 min. Samples were collected after successful desorption and analyzed using LC-MS/MS.
Male Sprague-Dawley rats (n = 6) were used for pharmacokinetic studies, and oral doses of indomethacin and acetaminophen were separately administered to overnight-fasted rats. Blood was collected through retro-orbital puncture at different time points, and plasma was separated and stored for further analysis. Plasma containing indomethacin and acetaminophen was added to the microcentrifuge tube containing the activated extraction device for adsorption and vortexed for 15 min with 1 mL of water, after which the analytes present in the plasma were bound to the surface of the cartridge. After adsorption for 15 min, the remaining solvent was transferred into a fresh tube and centrifuged to precipitate the matrix. The resulting supernatant was collected and introduced into an LC-MS/MS system to quantify the unbound concentration. The sorbent was transferred into a fresh microcentrifuge tube for desorption using acetonitrile and water and vortexed for 15 min to complete the process. The solution was collected, followed by centrifugation, and the supernatant was filtered through a 0.2µm filter. The resulting filtrate was then subjected to LC-MS/MS analysis to measure the indomethacin and acetaminophen concentration in the plasma.
An investigation into the pharmacokinetics of indomethacin and acetaminophen in rats was conducted through oral administration, employing LC-ESI-MS/MS analysis. Figure 9 illustrates the resulting pharmacokinetic profile, while Table 4 presents the computed pharmacokinetic parameters of both substances, obtained via PK Analysis Add-ins in the Microsoft Excel Program. […] The mean area under the curve (AUC0–t) for indomethacin is 0.93 µg h/mL and for acetaminophen is 32.33 µg h/mL. […] Based on the obtained results, the developed 3D-printed sorbent efficiently extracted analytes from plasma, reduced sample preparation time, and minimized the use of organic solvents during sample preparation.

[3] = acetaminophen, HQC, theoretical 600 ng/mL
[4] = acetaminophen, LQC, theoretical 3 ng/mL
[5] = indomethacin, HQC, theoretical 400 ng/mL
[6] = indomethacin, LQC, theoretical 3 ng/mL

CC(=O)Nc1ccc(O)cc1 [Acetaminophen]
Mean Estimated Concentration ± SD, autosampler stability [1, 3]: 596.26 ± 8.41 ng/mL | Mean Estimated Concentration ± SD, bench-top stability [1, 3]: 592.92 ± 10.80 ng/mL | Mean Estimated Concentration ± SD, three freeze-thaw cycles [1, 3]: 591.92 ± 6.66 ng/mL | Mean Estimated Concentration ± SD, autosampler stability [1, 4]: 2.92 ± 0.15 ng/mL | Mean Estimated Concentration ± SD, bench-top stability [1, 4]: 2.91 ± 0.16 ng/mL | Mean Estimated Concentration ± SD, three freeze-thaw cycles [1, 4]: 3.01 ± 0.09 ng/mL | mean percentage changes in plasma during bench-top stability, post-operative, and three freeze-thaw cycles [1]: within acceptable limits | AUC ([2]; 50 mg/kg): 32400 ± 10800 ng·h/mL | AUC(0-t) ([2]; 50 mg/kg): 32300 ± 10800 ng·h/mL | Cmax ([2]; 50 mg/kg): 27300 ± 9900 ng/mL | Tmax ([2]; 50 mg/kg): 30 to 60 min | half-life ([2]; 50 mg/kg): 48.6 ± 6 min | k el ([2]; 50 mg/kg): 0.000236 s⁻¹

COc1ccc2c(c1)c(CC(=O)O)c(C)n2C(=O)c1ccc(Cl)cc1 [Indomethacin]
Mean Estimated Concentration ± SD, autosampler stability [1, 5]: 391.82 ± 6.72 ng/mL | Mean Estimated Concentration ± SD, bench-top stability [1, 5]: 401.61 ± 7.80 ng/mL | Mean Estimated Concentration ± SD, three freeze-thaw cycles [1, 5]: 395.72 ± 13.06 ng/mL | Mean Estimated Concentration ± SD, autosampler stability [1, 6]: 2.99 ± 0.04 ng/mL | Mean Estimated Concentration ± SD, bench-top stability [1, 6]: 2.98 ± 0.11 ng/mL | Mean Estimated Concentration ± SD, three freeze-thaw cycles [1, 6]: 2.96 ± 0.12 ng/mL | mean percentage changes in plasma during bench-top stability, post-operative, and three freeze-thaw cycles [1]: within acceptable limits | AUC ([2]; 10 mg/kg): 970 ± 200 ng·h/mL | AUC(0-t) ([2]; 10 mg/kg): 930 ± 170 ng·h/mL | Cmax ([2]; 10 mg/kg): 330 ± 40 ng/mL | Tmax ([2]; 10 mg/kg): 30 to 60 min | half-life ([2]; 10 mg/kg): 107 ± 26.4 min | k el ([2]; 10 mg/kg): 0.000114 s⁻¹
